21 compounds from PubChem BioAssay AID256 (DTP/NCI, 2004) can be followed below.

Structures are written as SMILES. Several values for one entry are separate records, joined by “and”; a condition that tells them apart may be missing. Identical values can stand only once. Inconclusive results and toxic doses are left out.

In this assay the test system is CD2F1 mice, L1210 leukemia ip, survival T/C. The assay can be described thus: NCI In Vivo Anticancer Drug Screen. Data for tumor model L1210 Leukemia (intraperitoneal) in CD2F1 (CDF1) mice. The conditions noted are these: higher = longer survival. A digest of the protocol: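 Ratio T/C, where T is the treated-group value and C the vehicle-dosed control value, from mice implanted with a transplantable tumor.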

Where [1] appears, read: endpoint: mean survival time, dose: 100.0 mg/kg/injection, schedule: Q01DX001 (ip), vehicle: saline.
Where [2] appears, read: endpoint: mean survival time, dose: 200.0 mg/kg/injection, schedule: Q01DX001 (ip), vehicle: saline.
[3] abbreviates: endpoint: mean survival time, dose: 400.0 mg/kg/injection, schedule: Q01DX001 (ip), vehicle: saline.
[4] abbreviates: endpoint: mean survival time, dose: 100.0 mg/kg/injection, schedule: Q01DX009 (ip), vehicle: saline with Tween-80.
[5] abbreviates: endpoint: mean survival time, dose: 200.0 mg/kg/injection, schedule: Q01DX009 (ip), vehicle: saline with Tween-80.
[6] abbreviates: endpoint: mean survival time, dose: 100.0 mg/kg/injection, schedule: Q04DX002 (ip), vehicle: saline with Tween-80.
Setting [7] is: endpoint: mean survival time, dose: 200.0 mg/kg/injection, schedule: Q04DX002 (ip), vehicle: saline with Tween-80.
The mark [8] stands for this setting: endpoint: mean survival time, dose: 400.0 mg/kg/injection, schedule: Q04DX002 (ip), vehicle: saline with Tween-80.
The mark [9] stands for this setting: endpoint: mean survival time, dose: 400.0 mg/kg/injection, schedule: Q01DX009 (ip), vehicle: saline with Tween-80.
The mark [10] stands for this setting: endpoint: mean survival time, dose: 100.0 mg/kg/injection, schedule: Q04DX002 (ip), vehicle: saline.
The mark [11] stands for this setting: endpoint: mean survival time, dose: 200.0 mg/kg/injection, schedule: Q04DX002 (ip), vehicle: saline.
The mark [12] stands for this setting: endpoint: mean survival time, dose: 100.0 mg/kg/injection, schedule: Q04DX003 (ip), vehicle: Klucel (hydroxypropylcellulose) (HPC).
[13] abbreviates: endpoint: mean survival time, dose: 200.0 mg/kg/injection, schedule: Q04DX003 (ip), vehicle: Klucel (hydroxypropylcellulose) (HPC).
Setting [14] is: endpoint: mean survival time, dose: 400.0 mg/kg/injection, schedule: Q04DX003 (ip), vehicle: Klucel (hydroxypropylcellulose) (HPC).
Where [15] appears, read: endpoint: mean survival time, dose: 50.0 mg/kg/injection, schedule: Q01DX001 (ip), vehicle: saline.
The mark [16] stands for this setting: endpoint: mean survival time, dose: 100.0 mg/kg/injection, schedule: Q04DX003 (ip), vehicle: saline with Tween-80.
Where [17] appears, read: endpoint: mean survival time, dose: 200.0 mg/kg/injection, schedule: Q04DX003 (ip), vehicle: saline with Tween-80.
Setting [18] is: endpoint: mean survival time, dose: 400.0 mg/kg/injection, schedule: Q04DX003 (ip), vehicle: saline with Tween-80.

Take `CCCCCCCCCC[N+]1(C)CCC[N+](C)(CCCCCCCCCC)CC1` (centres undefined): the T/C reads like this: (endpoint: mean survival time, dose: 12.5 mg/kg/injection, schedule: Q01DX001 (ip), vehicle: saline with Tween-80) 95 % of control; (endpoint: mean survival time, dose: 25.0 mg/kg/injection, schedule: Q01DX001 (ip), vehicle: saline with Tween-80) 105 % of control.
As to `CC(N)CC(=O)NO` (centres undefined), the T/C was 104 % of control under setting [1], 104 % of control under setting [2] and 108 % of control under setting [3].
For the compound `Nc1nc(N)nc(CBr)n1`, the T/C (endpoint: mean survival time, dose: 3.13 mg/kg/injection, schedule: Q01DX001 (ip), vehicle: Klucel (hydroxypropylcellulose) (HPC)) is 98 % of control; the T/C (endpoint: mean survival time, dose: 6.25 mg/kg/injection, schedule: Q01DX001 (ip), vehicle: Klucel (hydroxypropylcellulose) (HPC)) is 98 % of control; the T/C (endpoint: mean survival time, dose: 12.5 mg/kg/injection, schedule: Q01DX001 (ip), vehicle: Klucel (hydroxypropylcellulose) (HPC)) is 88 % of control.
On to `CCOc1ccc(N2C(=O)CSC2=S)cc1`, for which the T/C runs as follows: (endpoint: mean survival time, dose: 50.0 mg/kg/injection, schedule: Q01DX009 (ip), vehicle: saline with Tween-80) 95 % of control; under setting [4], 87 % of control; under setting [5], 93 % of control.
On to `COC(=O)C1(C)CCCC2(C)C1CCC13C(O)C(C(C)C)C1CC23` (centres undefined), for which the T/C reads like this: (endpoint: mean survival time, dose: 100.0 mg/kg/injection, schedule: Q01DX001 (ip), vehicle: saline with Tween-80) 86 % of control; (endpoint: mean survival time, dose: 200.0 mg/kg/injection, schedule: Q01DX001 (ip), vehicle: saline with Tween-80) 91 % of control; (endpoint: mean survival time, dose: 400.0 mg/kg/injection, schedule: Q01DX001 (ip), vehicle: saline with Tween-80) 97 % of control.
Regarding `Cc1cc(=S)[nH]c2ccccc12`, the T/C (endpoint: mean survival time, dose: 37.5 mg/kg/injection, schedule: Q01DX009 (ip), vehicle: saline) is 91 % of control; the T/C (endpoint: mean survival time, dose: 75.0 mg/kg/injection, schedule: Q01DX009 (ip), vehicle: saline) is 91 % of control; the T/C (endpoint: mean survival time, dose: 150.0 mg/kg/injection, schedule: Q01DX009 (ip), vehicle: saline) is 96 % of control.
`CC(=O)OC1CCC2(C)C(=CCC3C2CCC2(C)C3CC3OC4(CCC(C)CO4)C(C)C32)C1` (centres undefined): the T/C runs as follows: (endpoint: mean survival time, dose: 100.0 mg/kg/injection, schedule: Q04DX003 (ip), vehicle: other) 95 % of control; (endpoint: mean survival time, dose: 200.0 mg/kg/injection, schedule: Q04DX003 (ip), vehicle: other) 94 % of control; (endpoint: mean survival time, dose: 400.0 mg/kg/injection, schedule: Q04DX003 (ip), vehicle: other) 94 % of control.
Regarding `CC1(C)Oc2[nH]c(=O)n(-c3ccc(Cl)cc3)c(=O)c2C1c1ccc(Cl)cc1` (centres undefined), the T/C by setting is: under setting [6], 102 % of control; under setting [7], 105 % of control; under setting [8], 109 % of control.
On to `O=[N+]([O-])c1cc(S(=O)(=O)c2ccc(N3CCCC3)c([N+](=O)[O-])c2)ccc1N1CCCC1`, for which the T/C was 102 % of control under setting [4], 95 % of control under setting [5] and 104 % of control under setting [9].
For `O=NN(CCCl)C(=O)NC1CCC(=O)NC1=O` (centres undefined), the T/C was 344 % of control (endpoint: median survival time, dose: 15.0 mg/kg/injection, schedule: Q01DX001 (ip), vehicle: saline with Tween-80); 344 % of control (endpoint: median survival time, dose: 20.0 mg/kg/injection, schedule: Q01DX001 (ip), vehicle: saline with Tween-80); 344 % of control (endpoint: median survival time, dose: 25.0 mg/kg/injection, schedule: Q01DX001 (ip), vehicle: saline with Tween-80); 344 % of control (endpoint: median survival time, dose: 30.0 mg/kg/injection, schedule: Q01DX001 (ip), vehicle: saline with Tween-80).
With `N#CC(N)=O`, the T/C runs as follows: under setting [10], 97 % of control; under setting [11], 91 % of control; (endpoint: mean survival time, dose: 400.0 mg/kg/injection, schedule: Q04DX002 (ip), vehicle: saline) 94 % of control.
Take `COc1ccc(C(C(N)=O)N2CCCC2)cc1` (centres undefined): the T/C under setting [4] is 89 % of control and the T/C under setting [5] was 90 % of control.
Turning to `O=C(Cc1ccc([N+](=O)[O-])cc1)c1ccc(O)cc1O`, the T/C was 96 % of control under setting [12], 98 % of control under setting [13] and 103 % of control under setting [14].
`Oc1ccc(Cl)cc1Cn1ccnc1`: the T/C under setting [15] was 111 % of control; the T/C (endpoint: mean survival time, dose: 50.0 mg/kg/injection, schedule: Q01DX009 (ip), vehicle: saline) was 104 % of control; the T/C (endpoint: mean survival time, dose: 50.0 mg/kg/injection, schedule: Q04DX003 (ip), vehicle: saline) was 106 % of control; the T/C under setting [1] is 100 % of control; the T/C (endpoint: mean survival time, dose: 100.0 mg/kg/injection, schedule: Q01DX009 (ip), vehicle: saline) is 95 % of control and 110 % of control; the T/C under setting [10] was 115 % of control and 101 % of control. Also, the T/C by setting is: (endpoint: mean survival time, dose: 100.0 mg/kg/injection, schedule: Q04DX003 (ip), vehicle: saline) 101 % of control; under setting [2], 104 % of control; (endpoint: mean survival time, dose: 200.0 mg/kg/injection, schedule: Q01DX009 (ip), vehicle: saline) 93 % of control and 109 % of control; under setting [11], 103 % of control and 112 % of control; (endpoint: mean survival time, dose: 200.0 mg/kg/injection, schedule: Q04DX003 (ip), vehicle: saline) 113 % of control.
Turning to `CCCCCCCCCCCCCCCCCCCCCC(=O)Nc1ccn(C2OC(CO)C(O)C2O)c(=O)n1` (centres undefined), the T/C under setting [6] is 212 % of control, the T/C under setting [7] was 253 % of control and the T/C under setting [8] is 325 % of control.
For the compound `O=C1OCCC1n1ccc(=O)[nH]c1=O` (centres undefined), the T/C was 102 % of control under setting [12], 96 % of control under setting [13] and 102 % of control under setting [14].
As to `CCCCC1C/C=C/C=C/C=C/C=C/C(OC2OC(C)C(O)C(N)C2O)CC2OC(O)(CC(O)CC3OC3/C=C/C(=O)O1)CC(O)C2C(=O)O` (centres undefined), the T/C reads like this: (endpoint: mean survival time, dose: 3.5 mg/kg/injection, schedule: Q01DX009 (ip), vehicle: saline sonified) 104 % of control; (endpoint: mean survival time, dose: 3.5 mg/kg/injection, schedule: Q04DX003 (ip), vehicle: saline sonified) 91 % of control; (endpoint: mean survival time, dose: 7.0 mg/kg/injection, schedule: Q01DX009 (ip), vehicle: saline sonified) 101 % of control; (endpoint: mean survival time, dose: 7.0 mg/kg/injection, schedule: Q04DX003 (ip), vehicle: saline sonified) 93 % of control; (endpoint: mean survival time, dose: 14.0 mg/kg/injection, schedule: Q01DX009 (ip), vehicle: saline sonified) 87 % of control; (endpoint: mean survival time, dose: 14.0 mg/kg/injection, schedule: Q04DX003 (ip), vehicle: saline sonified) 91 % of control.
Turning to `Cc1ccc(S(=O)(=O)N(O)c2ccccc2)cc1`, the T/C was 100 % of control under setting [16], 100 % of control under setting [17] and 103 % of control under setting [18].
Turning to `Cc1ccc(C2CC3c4ccccc4C2C2CCCCN32)cc1` (centres undefined), the T/C is, setting by setting: (endpoint: mean survival time, dose: 1.56 mg/kg/injection, schedule: Q01DX009 (ip), vehicle: water) 88 % of control and 86 % of control; (endpoint: mean survival time, dose: 3.13 mg/kg/injection, schedule: Q01DX009 (ip), vehicle: water) 86 % of control; (endpoint: mean survival time, dose: 6.25 mg/kg/injection, schedule: Q01DX009 (ip), vehicle: water) 88 % of control; (endpoint: mean survival time, dose: 12.5 mg/kg/injection, schedule: Q01DX009 (ip), vehicle: water) 88 % of control and 93 % of control; (endpoint: mean survival time, dose: 25.0 mg/kg/injection, schedule: Q01DX009 (ip), vehicle: water) 89 % of control and 102 % of control.
On to `COc1ccc(C(=O)C2(O)Oc3ccccc3C2=O)cc1` (centres undefined), for which the T/C under setting [15] is 98 % of control, the T/C under setting [1] is 98 % of control, the T/C under setting [2] was 98 % of control and the T/C under setting [3] was 117 % of control.
As to `CCc1cc(C)cc(OC(=O)Nc2ccc(Cl)cc2)c1`, the T/C runs as follows: under setting [4], 93 % of control; under setting [16], 107 % of control; under setting [5], 100 % of control; under setting [17], 93 % of control; under setting [9], 96 % of control; under setting [18], 91 % of control.
